Assay results taken from the NIST ThermoML archive (doi:10.1016/j.jct.2018.06.015).

Experiment: xn = mol fraction of the nth substance listed
Details: 100 kPa, Liquid; for speed of sound: Frequency=3 MHz, Single path-length method; for mass density: Vibrating tube method

CCCCOCCOCCO [3,6-dioxa-1-decanol] + CCCCCCCCO
Details	mass density, 293.15 K [kg/m3]	mass density, 298.15 K [kg/m3]	mass density, 303.15 K [kg/m3]	mass density, 308.15 K [kg/m3]	mass density, 313.15 K [kg/m3]	speed of sound, 293.15 K [m/s]	speed of sound, 298.15 K [m/s]	speed of sound, 303.15 K [m/s]	speed of sound, 308.15 K [m/s]	speed of sound, 313.15 K [m/s]
x1 = 0.0518	832.225	828.746	825.244	821.725	818.179	1364.4	1347.4	1330.7	1313.9	1297.4
x1 = 0.1019	838.886	835.371	831.834	828.281	824.7	1363.4	1346.4	1329.7	1313	1296.4
x1 = 0.1605	846.645	843.087	839.508	835.909	832.289	1362.8	1345.8	1329.1	1312.5	1296
x1 = 0.1994	851.754	848.167	844.558	840.932	837.284	1362.4	1345.5	1328.8	1312.1	1295.6
x1 = 0.2503	858.438	854.812	851.169	847.507	843.826	1362.1	1345.3	1328.5	1311.9	1295.5
x1 = 0.303	865.322	861.66	857.975	854.271	850.554	1362	1345.2	1328.5	1311.9	1295.4
x1 = 0.4013	878.059	874.317	870.565	866.793	863.012	1362.5	1345.7	1329	1312.4	1296
x1 = 0.4999	890.695	886.882	883.058	879.218	875.365	1363.2	1346.4	1329.7	1313.1	1296.7
x1 = 0.5918	902.338	898.456	894.568	890.661	886.747	1364.5	1347.6	1330.9	1314.3	1297.8
x1 = 0.7043	916.351	912.393	908.423	904.44	900.454	1366.7	1349.8	1333.1	1316.5	1299.9
x1 = 0.8085	929.131	925.094	921.053	916.997	912.939	1369.4	1352.4	1335.7	1319	1302.5
x1 = 0.848	933.965	929.901	925.834	921.75	917.662	1370.8	1353.8	1336.8	1320.1	1303.6
x1 = 0.901	940.359	936.257	932.151	928.029	923.906	1373	1356	1339.2	1322.4	1305.8
x1 = 0.9501	946.262	942.124	937.981	933.818	929.657	1374.3	1357.3	1340.4	1323.7	1307
x1 = 1	952.288	948.1	943.909	939.704	935.503	1378.2	1361.3	1344.5	1326.4	1307.7

CCCCOCCOCCO [3,6-dioxa-1-decanol] + CCCCCCO
Details	mass density, 293.15 K [kg/m3]	mass density, 298.15 K [kg/m3]	mass density, 303.15 K [kg/m3]	mass density, 308.15 K [kg/m3]	mass density, 313.15 K [kg/m3]	speed of sound, 293.15 K [m/s]	speed of sound, 298.15 K [m/s]	speed of sound, 303.15 K [m/s]	speed of sound, 308.15 K [m/s]	speed of sound, 313.15 K [m/s]
x1 = 0.0612	830.032	826.42	822.781	819.109	815.428	1323.2	1306.7	1289.7	1273.2	1256.6
x1 = 0.1016	836.858	833.209	829.539	825.839	822.126	1325.7	1309	1292.1	1275.4	1259.1
x1 = 0.1593	846.323	842.636	838.928	835.192	831.439	1329.1	1312.2	1295.4	1278.6	1262.3
x1 = 0.2053	853.619	849.892	846.155	842.384	838.617	1331.8	1314.9	1298.2	1281.3	1265
x1 = 0.251	860.647	856.892	853.123	849.323	845.516	1334.4	1317.5	1301	1283.8	1267.6
x1 = 0.3095	869.401	865.605	861.792	857.954	854.105	1337.5	1320.9	1304.2	1287.1	1271.2
x1 = 0.4054	883.079	879.224	875.359	871.465	867.564	1343.2	1326.3	1309.8	1292.4	1276.4
x1 = 0.5021	896.077	892.169	888.244	884.294	880.34	1348.5	1331.7	1314.9	1297.7	1281.6
x1 = 0.6049	909.164	905.192	901.21	897.205	893.199	1354.2	1337.5	1320.8	1303.3	1287.3
x1 = 0.6982	920.378	916.352	912.316	908.259	904.202	1359.8	1342.7	1326.1	1308.4	1292.7
x1 = 0.801	931.924	927.842	923.754	919.65	915.548	1365.5	1348.7	1331.8	1314.2	1298.2
x1 = 0.8313	935.198	931.096	926.99	922.874	918.76	1367.2	1350.3	1333.3	1315.8	1299.6
x1 = 0.9042	942.783	938.65	934.516	930.365	926.213	1372.5	1354.8	1338.3	1320.2	1304.8
x1 = 1	952.288	948.1	943.909	939.704	935.503	1378.2	1361.3	1344.5	1326.4	1307.7
